Source: ChEMBL document CHEMBL3879892, “Small molecule inhibition of PDZ-domain interaction” (2011)
Activity calls are given as the source filed them. The calls are words filed in the database; no cut-off is given here.

Tests used:
[1] = test system: NCI-H460; test: Inhibition of Dvl PDZ domain interaction with Fz protein in human NCI-H460 cells assessed as induction of apoptosis at 10 uM after 3 days by annexin V-FITC staining-based flow cytometry (reference value: 7.59 to 10.24%); type: cell-based; set-up: scale not given: the % may be the effect or the level left
[2] = test system: LOX; test: Inhibition of Dvl PDZ domain interaction with Fz protein in human LOX cells assessed as induction of apoptosis at 10 uM after 3 days by annexin V-FITC staining-based flow cytometry (reference value: 8.81 to 10.85%); type: cell-based; set-up: scale not given: the % may be the effect or the level left
[3] = Antitumor activity against human NCI-H460 cells xenografted in immune deficient nude mouse assessed as tumor growth inhibition at 50 mg/kg, ip administered for 14 days measured after 2 weeks post last dose relative to control; type: functional; details: 336 h, read-out: TGI
[4] = Antitumor activity against human LOX cells xenografted in immune deficient nude mouse assessed as tumor growth inhibition at 50 mg/kg, ip administered for 14 days measured after 2 weeks post last dose relative to control; type: functional; details: 336 h, read-out: TGI
[5] = biological target: T1, Membrane-associated guanylate kinase, WW and PDZ domain-containing protein 3 (Homo sapiens) (UniProt Q5TCQ9); test: Inhibition of fluorescein labeled PFDEDQHTQITWV-COOH interaction with GST-fused MAGI-3 second PDZ domain (unknown origin) expressed in Escherichia coli BL21 (DE3) by fluorescence polarization assay
T1 sequence (whole entry): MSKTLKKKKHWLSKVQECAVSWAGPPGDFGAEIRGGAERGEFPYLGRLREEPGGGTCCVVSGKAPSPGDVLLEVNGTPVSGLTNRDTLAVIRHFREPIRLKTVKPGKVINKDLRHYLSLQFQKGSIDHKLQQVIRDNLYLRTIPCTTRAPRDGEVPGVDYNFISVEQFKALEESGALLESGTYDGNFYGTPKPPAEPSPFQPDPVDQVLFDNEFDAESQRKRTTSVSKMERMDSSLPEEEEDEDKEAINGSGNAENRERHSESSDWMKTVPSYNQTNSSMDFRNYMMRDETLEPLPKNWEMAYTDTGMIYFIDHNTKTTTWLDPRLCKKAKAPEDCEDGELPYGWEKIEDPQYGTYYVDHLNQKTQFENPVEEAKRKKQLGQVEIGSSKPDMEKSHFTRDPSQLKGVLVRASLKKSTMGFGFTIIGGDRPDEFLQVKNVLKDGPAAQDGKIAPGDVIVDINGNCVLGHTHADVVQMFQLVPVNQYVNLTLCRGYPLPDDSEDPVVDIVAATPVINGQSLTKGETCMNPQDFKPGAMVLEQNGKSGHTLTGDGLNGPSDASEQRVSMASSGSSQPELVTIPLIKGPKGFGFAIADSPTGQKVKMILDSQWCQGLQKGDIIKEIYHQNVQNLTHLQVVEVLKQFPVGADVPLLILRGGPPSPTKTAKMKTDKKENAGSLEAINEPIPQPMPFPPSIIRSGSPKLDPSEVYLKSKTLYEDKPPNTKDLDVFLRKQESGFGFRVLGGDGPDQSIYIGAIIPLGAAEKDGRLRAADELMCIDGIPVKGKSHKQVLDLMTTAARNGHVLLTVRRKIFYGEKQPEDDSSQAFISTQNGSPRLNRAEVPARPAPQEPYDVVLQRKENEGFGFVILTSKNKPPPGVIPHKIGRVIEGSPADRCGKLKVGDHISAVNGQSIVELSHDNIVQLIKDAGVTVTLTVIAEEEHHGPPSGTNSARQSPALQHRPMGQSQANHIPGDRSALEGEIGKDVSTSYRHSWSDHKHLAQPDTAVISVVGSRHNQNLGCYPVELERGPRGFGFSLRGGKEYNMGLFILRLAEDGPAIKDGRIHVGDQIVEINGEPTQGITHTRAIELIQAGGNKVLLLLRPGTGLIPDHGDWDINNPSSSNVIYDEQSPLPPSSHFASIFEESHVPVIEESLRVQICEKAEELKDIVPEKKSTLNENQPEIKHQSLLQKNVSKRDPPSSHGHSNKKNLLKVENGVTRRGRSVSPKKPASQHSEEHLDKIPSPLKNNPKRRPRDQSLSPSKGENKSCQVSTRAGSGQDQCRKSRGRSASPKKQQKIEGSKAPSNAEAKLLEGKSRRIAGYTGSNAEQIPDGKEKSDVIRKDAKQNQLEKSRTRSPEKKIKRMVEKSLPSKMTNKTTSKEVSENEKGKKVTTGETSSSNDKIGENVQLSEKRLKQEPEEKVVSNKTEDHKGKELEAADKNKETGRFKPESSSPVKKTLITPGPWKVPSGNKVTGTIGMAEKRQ

Q: What does the source list for Cc1cc2[nH]c(C(O)c3ccccc3)c(CCCc3ccccc3)c2cc1C(=O)O (centres undefined)?
A: Activity [1]: 37%; Activity [2]: 65.3%

Q: With CCCCC(O)c1[nH]c2cc(C)c(C(=O)O)cc2c1CCc1ccccc1 (centres undefined) as the compound, how does the inhibition in vivo at 50 mg/kg [3] read?
A: 20 to 34%

Q: What about the inhibition in vivo at 50 mg/kg [4] of the same compound?
A: 66 to 82%

Q: What about the Activity [1] of the same compound?
A: 14.6 to 28.3%

Q: And the inhibition [5]?
A: Active

Q: And the Activity [2]?
A: 13.4 to 18.5%

Q: For Cc1cc2[nH]c(C(O)CCc3ccccc3)c(CCc3ccccc3)c2cc1C(=O)O (centres undefined), which Activity [1] is on record?
A: 36.7%

Q: What about the Activity [2] of the same compound?
A: 34.7%
